Data set [1] is described as follows: Heat stability of latanoprost (biological activity). Type of data set: physicochemical. Conditions: on heating.
For data set [2] the following is noted: cited from earlier work.

Regarding `CC(C)OC(=O)CCC/C=C\C[C@@H]1[C@@H](CC[C@@H](O)CCc2ccccc2)[C@H](O)C[C@@H]1O` [latanoprost], in data set [1], the “Temperature above which latanoprost begins to lose biological activity” value was “about 56 °C”. Further, in data set [2], the “Solubility in acetone, ethanol, ethyl acetate, isopropanol, methanol and octanol” value is recorded as “freely soluble”; the Solubility in acetonitrile entry is listed as “very soluble”; the Solubility in water entry is reported as “practically insoluble”.

These data come from patent publication US10463772B2, “Prostaglandin and prostamide drug delivery systems and intraocular therapeutic uses thereof” (ALLERGAN, INC., priority 2008, dated 2019).
